The record followed here is patent US7410963B2, “Benzo-1,4-diazepin-2-one derivatives as phosphodiesterase PDE2 inhibitors, preparation and therapeutic use thereof” (VIA Pharmaceuticals, Inc., priority 2003, dated 2008).

Each structure is given as a SMILES string. Read-outs that look alike come from different tables or passages of the source.

In the assay the target is T1, PDE2 (Bos taurus, UniProt P14099).
T1 sequence (P14099 1-921): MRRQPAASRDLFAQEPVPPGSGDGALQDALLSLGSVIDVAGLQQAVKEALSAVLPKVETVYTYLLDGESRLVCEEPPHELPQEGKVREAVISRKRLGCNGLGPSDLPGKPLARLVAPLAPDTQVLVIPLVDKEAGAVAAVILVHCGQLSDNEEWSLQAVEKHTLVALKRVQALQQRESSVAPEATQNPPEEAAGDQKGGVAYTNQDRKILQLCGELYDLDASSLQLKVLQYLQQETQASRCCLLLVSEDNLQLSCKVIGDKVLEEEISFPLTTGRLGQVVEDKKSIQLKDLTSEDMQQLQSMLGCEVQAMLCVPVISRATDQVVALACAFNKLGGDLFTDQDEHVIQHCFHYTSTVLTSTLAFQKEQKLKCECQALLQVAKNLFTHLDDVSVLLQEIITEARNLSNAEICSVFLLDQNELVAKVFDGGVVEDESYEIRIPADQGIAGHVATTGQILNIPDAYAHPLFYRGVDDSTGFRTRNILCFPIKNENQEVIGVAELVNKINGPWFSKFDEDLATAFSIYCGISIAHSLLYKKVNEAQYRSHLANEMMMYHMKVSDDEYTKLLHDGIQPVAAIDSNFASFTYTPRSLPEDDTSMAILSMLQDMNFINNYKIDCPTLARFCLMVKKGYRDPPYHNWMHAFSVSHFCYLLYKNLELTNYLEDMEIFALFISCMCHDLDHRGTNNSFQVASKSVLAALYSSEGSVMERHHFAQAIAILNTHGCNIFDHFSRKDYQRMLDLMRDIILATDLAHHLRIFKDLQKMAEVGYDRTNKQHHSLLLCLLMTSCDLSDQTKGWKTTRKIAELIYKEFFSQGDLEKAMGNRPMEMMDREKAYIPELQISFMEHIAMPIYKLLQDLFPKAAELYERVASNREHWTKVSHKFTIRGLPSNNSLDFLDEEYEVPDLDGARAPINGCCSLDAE
Kind of assay: Radioenzymatic phosphodiesterase assay: PDE2 inhibition. Format: biochemical, bovine. Particulars: for inhibition at 10 µM: read-out: PDE2 percentage of inhibition at 10 μM. As to the method:
Nucleoside radioactivity was determined by liquid scintillation.

`COc1ccc(C2=NCC(=O)N(C)c3ccc(-c4c(OC)cccc4OC)cc32)cc1OC` [Example 101, 5-(3,4-Dimethoxy-phenyl)-7-(2,6-dimethoxy-phenyl)-1-methyl-1,3-dihydro-benzo[e][1,4]diazepin-2-one]: the inhibition (commonly the change of the read-out against control, counted positive when it falls) at 10 µM amounted to 99%.

In the case of `CN1C(=O)CN=C(c2cccc(C(N)=O)c2)c2cc(-c3ccccc3)c(Oc3ccccc3)cc21` [Example 72, 3-(1-Methyl-2-oxo-8-phenoxy-7-phenyl-2,3-dihydro-1H-benzo[e][1,4]diazepin-5-yl)-benzamide], the inhibition at 10 µM is 28%.

Regarding `COc1ccc(Cl)cc1-c1ccc2c(c1)C(c1cccc(C#N)c1)=NCC(=O)N2C` [Example 81, 3-[7-(5-Chloro,2-methoxy-phenyl)-1-methyl-2-oxo-2,3-dihydro-1H-benzo[e][1,4]diazepin-5-yl]-benzonitrile], the inhibition at 10 µM (Table 1, 10 μM test compound) came to 22%.

As for `COc1ccc(-c2ccc3c(c2)C(c2cccc(C#N)c2)=NCC(=O)N3C)c(OC)c1` [Example 17, 3-[7-(2,4-Dimethoxy-phenyl)-1-methyl-2-oxo-2,3-dihydro-1H-benzo[e][1,4]diazepin-5-yl]-benzonitrile], the inhibition at 10 µM amounted to 98%.

Consider `CN1C(=O)CN=C(c2cccc(C#N)c2)c2cc(-c3ccccc3Oc3ccccc3)ccc21` [Example 88, 3-[1-Methyl-2-oxo-7-(2-phenoxy-phenyl)-2,3-dihydro-1H-benzo[e][1,4]diazepin-5-yl]-benzonitrile], for which the inhibition at 10 µM came out at 89%.

`COc1cc2c(cc1-c1ccc(Cl)cc1)C(c1cccc(C#N)c1)=NCC(=O)N2C` [Example 7, 3-[7-(4-Chloro-phenyl)-8-methoxy-1-methyl-2-oxo-2,3-dihydro-1H-benzo[e][1,4]diazepin-5-yl]-benzonitrile]: the inhibition at 10 µM was determined as 91%.

On to `CN1C(=O)CN=C(c2cccc(C(F)(F)F)c2)c2cc(-c3ccccc3)ccc21` [Example 59, 1-Methyl-7-phenyl-5-(3-trifluoromethyl-phenyl)-1,3-dihydro-benzo[e][1,4]diazepin-2-one], for which the inhibition at 10 µM (Table 1, 10 μM test compound) was 43%.

Take `COc1cc2c(cc1-c1ccccc1)C(c1ccc(Br)cc1)=NCC(=O)N2` [Example 114, 5-(4-Bromo-phenyl)-8-methoxy-7-phenyl-1,3-dihydro-benzo[e][1,4]diazepin-2-one]: where the note is “Table 1, 10 μM test compound”, the inhibition at 10 µM came out at 72%.

For `COc1ccccc1-c1cc2c(cc1OC)N(Cc1ccccc1)C(=O)CN=C2c1cccc(C#N)c1` [Example 39, 3-[1-Benzyl-8-methoxy-7-(2-methoxy-phenyl)-2-oxo-2,3-dihydro-1H-benzo[e][1,4]diazepin-5-yl]-benzonitrile], the inhibition at 10 µM came out at 72%.

For the compound `COc1ccc(-c2ccc3c(c2)C(c2cccc(C#N)c2)=NCC(=O)N3C)cc1OC` [Example 53, 3-[7-(3,4-Dimethoxy-phenyl)-1-methyl-2-oxo-2,3-dihydro-1H-benzo[e][1,4]diazepin-5-yl]-benzonitrile], the inhibition at 10 µM amounted to 95%.

For the compound `COc1cc2c(cc1-c1ccc(F)cc1)C(c1cccc(C(N)=O)c1)=NCC(=O)N2C` [Example 20, 3-[7-(4-Fluoro-phenyl)-8-methoxy-1-methyl-2-oxo-2,3-dihydro-1H-benzo[e][1,4]diazepin-5-yl]-benzamide], the inhibition at 10 µM (Table 1, 10 μM test compound) amounted to 99%.

For the compound `COc1cc2c(cc1-c1ccccc1)C(c1cccc(C#N)c1)=NCC(=O)N2C` [Example 1, 3-(8-Methoxy-1-methyl-2-oxo-7-phenyl-2,3-dihydro-1H-benzo[e][1,4]diazepin-5-yl)-benzonitrile], the inhibition at 10 µM was found to be 83%.

As for `CN1C(=O)CN=C(c2cccc(C=O)c2)c2cc(-c3ccccc3)ccc21` [Example 9, 3-(1-Methyl-2-oxo-7-phenyl-2,3-dihydro-1H-benzo[e][1,4]diazepin-5-yl)-benzaldehyde], the inhibition at 10 µM (Table 1, 10 μM test compound) was 84%.

For `COc1cc2c(cc1-c1ccc(C(C)=O)cc1)C(c1cccc(C(N)=O)c1)=NCC(=O)N2C` [Example 49, 3-[7-(4-Acetylphenyl)-8-methoxy-1-methyl-2-oxo-2,3-dihydro-1H-benzo[e][1,4]diazepin-5-yl]-benzamide], the inhibition at 10 µM came to 99%.

On to `COCC#Cc1cccc(C2=NCC(=O)N(C)c3cc(OC)c(-c4ccccc4)cc32)c1` [Example 95, 8-Methoxy-5-[3-(3-methoxy-prop-1-ynyl)-phenyl]-1-methyl-7-phenyl-1,3-dihydro-benzo[e][1,4]diazepin-2-one], for which the inhibition at 10 µM came to 89%.

On to `CCCCCCN1C(=O)CN=C(c2cccc(C#N)c2)c2cc(-c3ccccc3OC)c(OC)cc21` [Example 35, 3-[1-Hexyl-8-methoxy-7-(2-methoxy-phenyl)-2-oxo-2,3-dihydro-1H-benzo[e][1,4]diazepin-5-yl]-benzonitrile], for which the inhibition at 10 µM was determined as 39%.

With `CCCN1C(=O)CN=C(c2cccc(C#N)c2)c2cc(-c3ccccc3OC)c(OC)cc21` [Example 37, 3-[8-Methoxy-7-(2-methoxy-phenyl)-2-oxo-1-propyl-2,3-dihydro-1H-benzo[e][1,4]diazepin-5-yl]-benzonitrile], the inhibition at 10 µM came out at 45%.

Take `CN1C(=O)CN=C(c2cccc(C#N)c2)c2cc(-c3ccco3)ccc21` [Example 52, 3-[7-(Furan-2-yl)-1-methyl-2-oxo-2,3-dihydro-1H-benzo[e][1,4]diazepin-5-yl]-benzonitrile]: the inhibition at 10 µM (Table 1, 10 μM test compound) was 78%.

Turning to `COc1ccc(-c2cc3c(cc2OC)N(C)C(=O)CN=C3c2cccc(C#N)c2)cc1` [Example 4, 3-[8-Methoxy-7-(4-methoxy-phenyl)-1-methyl-2-oxo-2,3-dihydro-1H-benzo[e][1,4]diazepin-5-yl]-benzonitrile], the inhibition at 10 µM (Table 1, 10 μM test compound) is 97%.

In the case of `COc1cccc(-c2ccc3c(c2)C(c2cccc(C#N)c2)=NCC(=O)N3C)c1` [Example 13, 3-[7-(3-Methoxy-phenyl)-1-methyl-2-oxo-2,3-dihydro-1H-benzo[e][1,4]diazepin-5-yl]-benzonitrile], for the setting “Table 1, 10 μM test compound”, the inhibition at 10 µM is 91%.

On to `COCC#Cc1ccc(C2=NCC(=O)N(C)c3cc(OC)c(-c4ccccc4)cc32)cc1` [Example 98, 8-Methoxy-5-[4-(3-methoxy-prop-1-ynyl)-phenyl]-1-methyl-7-phenyl-1,3-dihydro-benzo[e][1,4]diazepin-2-one], for which the inhibition at 10 µM is 80%.

For the compound `COc1ccc(C2=NCC(=O)N(C)c3cc(OC)c(-c4c(F)cccc4OC)cc32)cc1` [Example 111, 7-(2-Fluoro-6-methoxy-phenyl)-8-methoxy-5-(4-methoxy-phenyl)-1-methyl-1,3-dihydro-benzo[e][1,4]diazepin-2-one], the inhibition at 10 µM amounted to 99%.

With `COc1ccccc1-c1cc2c(cc1Oc1ccccc1)N(C)C(=O)CN=C2c1cccc(C(N)=O)c1` [Example 74, 3-[7-(2-Methoxy-phenyl)-1-methyl-2-oxo-8-phenoxy-2,3-dihydro-1H-benzo[e][1,4]diazepin-5-yl]-benzamide], the inhibition at 10 µM (Table 1, 10 μM test compound) came out at 98%.

Turning to `Cc1ccc(C2=NCC(=O)N(C)c3ccc(-c4ccccc4)cc32)cc1[N+](=O)[O-]` [Example 60, 1-Methyl-5-(4-methyl-3-nitro-phenyl)-7-phenyl-1,3-dihydro-benzo[e][1,4]diazepin-2-one], for the setting “Table 1, 10 μM test compound”, the inhibition at 10 µM was determined as 88%.

For the compound `COc1cccc(-c2ccc3c(c2)C(c2cccc(C(N)=O)c2)=NCC(=O)N3C)c1` [Example 29, 3-[7-(3-methoxy-phenyl)-1-methyl-2-oxo-2,3-dihydro-1H-benzo[e][1,4]diazepin-5-yl]-benzamide], the inhibition at 10 µM (Table 1, 10 μM test compound) was 95%.

In the case of `COCCCc1ccc(C2=NCC(=O)N(C)c3cc(OC)c(-c4ccccc4)cc32)cc1` [Example 106, 8-Methoxy-5-[4-(3-methoxy-propyl)-phenyl]-1-methyl-7-phenyl-1,3-dihydro-benzo[e][1,4]diazepin-2-one], the inhibition at 10 µM is 47%.

For `COc1cc2c(cc1-c1ccccc1)C(c1ccc(C#Cc3ccccc3)cc1)=NCC(=O)N2C` [Example 97, 8-Methoxy-1-methyl-7-phenyl-5-(4-phenylethynyl-phenyl)-1,3-dihydro-benzo[e][1,4]diazepin-2-one], the inhibition at 10 µM turned out to be 45%.

For `COc1cc2c(cc1-c1ccc(C(N)=O)cc1)C(c1cccc(C(N)=O)c1)=NCC(=O)N2` [Example 34, 3-[8-Methoxy-7-(4-benzamide)-2-oxo-2,3-dihydro-1H-benzo[e][1,4]diazepin-5-yl]-benzamide], the “PDE2 percentage of inhibition at 10 μM” value (Table 1, 10 μM test compound) was 98%.

Turning to `CN1C(=O)CN=C(c2ccc(F)cc2)c2cc(-c3ccccc3)ccc21` [Example 57, 5-(4-Fluoro-phenyl)-1-methyl-7-phenyl-1,3-dihydro-benzo[e][1,4]diazepin-2-one], for the setting “Table 1, 10 μM test compound”, the inhibition at 10 µM came to 74%.

For the compound `CC(=O)c1cccc(C2=NCC(=O)N(C)c3ccc(-c4ccccc4)cc32)c1` [Example 58, 5-(3-Acetyl-phenyl)-1-methyl-7-phenyl-1,3-dihydro-benzo[e][1,4]diazepin-2-one], the inhibition at 10 µM (Table 1, 10 μM test compound) turned out to be 91%.
